ChEMBL document CHEMBL5154694, “Fascaplysin derivatives binding to DNA via unique cationic five-ring coplanar backbone showed potent antimicrobial/antibiofilm activity against MRSA in vitro and in vivo” (Eur J Med Chem, 2022)
Active and inactive are the calls of the source. The rule behind the calls is not given here.

Columns and labels:
Staphylococcus aureus [1] = assay: Bactericidal activity against methicillin-resistant Staphylococcus aureus ATCC 4330 assessed as reduction in bacterial counts at 1 to 4X MIC within 24 hrs by time-kill kinetic assay; assay type: functional
Staphylococcus aureus [2] = assay: Bactericidal activity against methicillin-resistant Staphylococcus aureus ATCC 4330 assessed as reduction in bacterial counts at 2X MIC within 0.5 hrs by time-kill kinetic assay; assay type: functional
Staphylococcus aureus [3] = assay: Antibacterial activity against methicillin-resistant Staphylococcus aureus ATCC 4330 after 16 to 18 hrs by microbroth dilution method; assay type: functional; conditions: time 16-18 hrs
Staphylococcus aureus [4] = assay: Bactericidal activity against methicillin-resistant Staphylococcus aureus ATCC 4330 assessed as reduction in bacterial counts at 4X MIC by time-kill kinetic assay; assay type: functional, organism-based
[5] = Cytotoxicity against mouse RAW264.7 cells assessed as cell survival at 50 ug/ml incubated for 24 hrs by CCK-8 assay; assay type: toxicity, cell-based; conditions: at 50 µg/mL, read-out: Activity
[6] = Toxicity in female ICR peritonitis mouse model infected with methicillin-resistant Staphylococcus aureus ATCC 4330 assessed as lung damage at 10 mg/kg, ip; assay type: organism-based; conditions: in vivo
Staphylococcus aureus [7] = assay: Antibiofilm activity against methicillin-resistant Staphylococcus aureus ATCC 4330 assessed as fold change in downregulation of AgrA mRNA expression at 4X MIC after 2 hrs by qRT-PCR assay; assay type: functional
Staphylococcus aureus [8] = assay: Induction of membrane morphological changes in methicillin-resistant Staphylococcus aureus ATCC 4330 assessed as visible cell wall fragments at 4X MIC after 2 hrs by transmission electron microscopy; assay type: functional
Staphylococcus aureus [9] = assay: Antibiofilm activity against methicillin-resistant Staphylococcus aureus ATCC 4330 assessed as inhibition of biofilm formation at 1.56 ug/ml after 24 hrs by crystal violet staining based assay relative to control; assay type: functional
Staphylococcus aureus [10] = assay: Antimicrobial activity against methicillin-resistant Staphylococcus aureus ATCC 4330 infected in female ICR peritonitis mouse model assessed as survival time of mouse at 10 mg/kg, ip; assay type: functional
Staphylococcus aureus [11] = assay: Induction of membrane morphological changes in methicillin-resistant Staphylococcus aureus ATCC 4330 assessed as visible cell surface wrinkles at 4X MIC after 2 hrs by scanning electron microscopy; assay type: functional
Staphylococcus aureus [12] = assay: Induction of membrane morphological changes in methicillin-resistant Staphylococcus aureus ATCC 4330 assessed as ghost cells at 4X MIC after 2 hrs by transmission electron microscopy; assay type: functional
Staphylococcus aureus [13] = assay: Induction of membrane morphological changes in methicillin-resistant Staphylococcus aureus ATCC 4330 assessed as fluorescent intensity at 1 to 4X MIC measured after 30 to 120 mins by propidium iodide staining based flow cytometry assay; assay type: functional; conditions: time 30-120 min
Staphylococcus aureus [14] = assay: Induction of membrane morphological changes in methicillin-resistant Staphylococcus aureus ATCC 4330 assessed as visible cell filaments at 4X MIC after 2 hrs by scanning electron microscopy; assay type: functional
[15] = Hemolytic activity in mouse erythrocytes assessed as hemolysis at 12.5 ug/ml relative to control; assay type: toxicity, cell-based, Erythrocyte; conditions: at 12.5 µg/mL, read-out: Activity
DNA [16] = assay: Inhibition of methicillin-resistant Staphylococcus aureus ATCC 4330 genomic DNA migration at 3.125 to 6.25 ug/ml measured by electrophoretic mobility assay; assay type: nucleic-acid assay; conditions: dose 3.125-6.25 µg/ml
[17] = Toxicity in female ICR peritonitis mouse model infected with methicillin-resistant Staphylococcus aureus ATCC 4330 assessed as kidney damage at 10 mg/kg, ip; assay type: organism-based; conditions: in vivo
Staphylococcus aureus [18] = assay: Bactericidal activity against methicillin-resistant Staphylococcus aureus ATCC 4330 assessed as inhibition of bacterial regrowth at 2X MIC after 24 hrs by time-kill kinetic assay; assay type: functional, organism-based
DNA [19] = assay: Binding affinity to methicillin-resistant Staphylococcus aureus ATCC 4330 DNA assessed as induction of confirmational changes at 50 ug/ml measured by Circular dichroism assay; assay type: nucleic-acid assay; conditions: dose 50.0 µg/ml
Staphylococcus aureus [20] = assay: Induction of membrane morphological changes in methicillin-resistant Staphylococcus aureus ATCC 4330 assessed as visible cell membrane disruption at 4X MIC after 2 hrs by transmission electron microscopy; assay type: functional
Staphylococcus aureus [21] = assay: Antimicrobial activity against methicillin-resistant Staphylococcus aureus ATCC 4330 infected in female ICR peritonitis mouse model assessed as increase in survival rate of mouse at 10 mg/kg, ip; assay type: functional
[22] = Toxicity in female ICR peritonitis mouse model infected with methicillin-resistant Staphylococcus aureus ATCC 4330 assessed as liver damage at 10 mg/kg, ip; assay type: organism-based; conditions: in vivo
Staphylococcus aureus [23] = assay: Antimicrobial activity against methicillin-resistant Staphylococcus aureus ATCC 4330 infected in female ICR peritonitis mouse model assessed as reduction in bacteria in blood at 10 mg/kg, ip; assay type: functional
[24] = Cytotoxicity against mouse RAW264.7 cells assessed as cell survival at 12.5 ug/ml incubated for 24 hrs by CCK-8 assay; assay type: toxicity, cell-based; conditions: at 12.5 µg/mL, read-out: Activity
[25] = Cytotoxicity against mouse RAW264.7 cells assessed as cell survival at 25 ug/ml incubated for 24 hrs by CCK-8 assay; assay type: toxicity, cell-based; conditions: at 25 µg/mL, read-out: Activity
Staphylococcus aureus [26] = assay: Antibiofilm activity against methicillin-resistant Staphylococcus aureus ATCC 4330 assessed as inhibition of biofilm formation at 6.25 ug/ml after 24 hrs by crystal violet staining based assay relative to control; assay type: functional
Staphylococcus aureus [27] = assay: Antibiofilm activity against methicillin-resistant Staphylococcus aureus ATCC 4330 assessed as fold change in upregulation of AgrA mRNA expression at 4X MIC after 2 hrs by qRT-PCR assay; assay type: functional
Staphylococcus aureus [28] = assay: Antibiofilm activity against methicillin-resistant Staphylococcus aureus ATCC 4330 assessed as inhibition of biofilm formation at 50 ug/ml after 24 hrs by crystal violet staining based assay relative to control; assay type: functional

| Compound | Activity (Staphylococcus aureus [1]) [log10CFU/ml] | Activity (Staphylococcus aureus [2]) [log10CFU/ml] | MIC (Staphylococcus aureus [3]) [mg/L] | viability at 24 h, 50 ug/ml [5] [%] | Activity [6] | Survival (Staphylococcus aureus [10]) [days] | hemolysis at 12.5 ug/ml [15] [%] | Activity [17] | Activity (Staphylococcus aureus [21]) [%] | Activity [22] | also measured |
| --- | --- | --- | --- | --- | --- | --- | --- | --- | --- | --- | --- |
| Cc1ccc2[nH]c3c4[n+](ccc3c2c1)-c1ccccc1C4=O.[Cl-] | 2 | 0.1 | 0.78 |  |  |  |  |  |  |  |  |
| CCCCNC(=O)c1ccc2[nH]c3c(C(=O)c4ccccc4Br)nccc3c2c1 |  |  | > 200 |  |  |  |  |  |  |  |  |
| Cc1ccc2[nH]c3c(C(=O)c4ccccc4Cl)nccc3c2c1 |  |  | > 200 |  |  |  |  |  |  |  |  |
| O=C(O)c1ccc2[nH]c3c4[n+](ccc3c2c1)-c1ccccc1C4=O.[Br-] | 2 | 0 | 6.25 |  |  |  |  |  |  |  | Activity (Staphylococcus aureus [4]): Active |
| O=C(c1ccccc1Br)c1nccc2c1[nH]c1ccccc12 |  |  | > 200 |  |  |  |  |  |  |  |  |
| O=C(Nc1cccc2ccccc12)c1ccc2[nH]c3c4[n+](ccc3c2c1)-c1ccccc1C4=O.[Br-] | 2 | 1.9 | 0.098 | 98.4 | Non-Toxic | 2 | 0 | Non-Toxic | 20 | Non-Toxic | fold change (FC) (Staphylococcus aureus [7]): 0.1; Activity (Staphylococcus aureus [8]): Active; inhibition at 1.56 µg/mL (Staphylococcus aureus [9]): 78.9%; Activity (Staphylococcus aureus [4]): Active; Activity (Staphylococcus aureus [11]): Active; Activity (Staphylococcus aureus [12]): Active; Activity (Staphylococcus aureus [13]): 19.3%; Activity (Staphylococcus aureus [14]): Active; inhibition of DNA migration (DNA [16]): Active; Activity (Staphylococcus aureus [18]): Active; Activity (DNA [19]): Active; Activity (Staphylococcus aureus [20]): Active; Activity (Staphylococcus aureus [23]): Active |
| Cc1ccc2[nH]c3c4[n+](ccc3c2c1)-c1ccccc1C4=O.[Br-] | 2 | 1.7 | 0.195 | 69.8 | Non-Toxic | 2 | 0 | Non-Toxic | 20 | Non-Toxic | fold change (FC) (Staphylococcus aureus [7]): 0.71; viability at 24 h, 12.5 ug/ml [24]: 17.7%; viability at 24 h, 25 ug/ml [25]: 56.3%; Activity (Staphylococcus aureus [23]): 92%; inhibition at 6.25 µg/mL (Staphylococcus aureus [26]): 65.4% |
| O=C(c1ccccc1Br)c1nccc2c1[nH]c1ccc(Br)cc12 |  |  | > 200 |  |  |  |  |  |  |  |  |
| O=C(c1ccccc1Cl)c1nccc2c1[nH]c1ccccc12 |  |  | > 200 |  |  |  |  |  |  |  |  |
| O=C1c2ccccc2-[n+]2ccc3c([nH]c4ccc(Br)cc43)c21.[Br-] | 2 | 2.4 | 0.098 | 92.9 | Non-Toxic | 2 | 0 | Non-Toxic | 20 | Non-Toxic | Activity (Staphylococcus aureus [8]): Active; inhibition at 1.56 µg/mL (Staphylococcus aureus [9]): 74.9%; Activity (Staphylococcus aureus [4]): Active; Activity (Staphylococcus aureus [11]): Active; viability at 24 h, 12.5 ug/ml [24]: 72.3%; Activity (Staphylococcus aureus [12]): Active; Activity (Staphylococcus aureus [13]): 19.3%; Activity (Staphylococcus aureus [14]): Active; inhibition of DNA migration (DNA [16]): Active; Activity (Staphylococcus aureus [18]): Active; viability at 24 h, 25 ug/ml [25]: 86.5%; fold change (FC) (Staphylococcus aureus [27]): 2.12; Activity (DNA [19]): Active; Activity (Staphylococcus aureus [20]): Active; Activity (Staphylococcus aureus [23]): Active |
| O=C1c2ccccc2-[n+]2ccc3c([nH]c4ccccc43)c21.[Br-] | 2 | 0 | 0.39 | 100 | Non-Toxic | 2 | 0 | Non-Toxic | 20 | Non-Toxic | viability at 24 h, 12.5 ug/ml [24]: 91.7%; inhibition at 50 µg/mL (Staphylococcus aureus [28]): 27.4%; viability at 24 h, 25 ug/ml [25]: 100%; fold change (FC) (Staphylococcus aureus [27]): 1.67 |
